Common to all, as to design: key: “+” = active; “−” = inactive; “pr” = promoting
In one assay the target is T1, Aβ40 (Homo sapiens, UniProt P05067).
T1 construct: 200 μM of a test compound and 20 μM of solubilized Aβ40
Put plainly: mass spectroscopy (MS) assay, binding to Aβ. The conditions noted are these: 200 μM test compound, 20 μM solubilized Aβ40, pH 7.4; ability to bind to Aβ. The protocol:
Test compounds were purchased from commercial sources or synthesized and screened by thioflavin T fluorescent assay (“ThT assay”). Alternatively, one could screen test compounds by circular dichroism (“CD”), electron microscopy (“EM”), or mass spectroscopy (“MS”) assays.
And in the mass spectroscopy (“MS”) assay, samples were prepared as aqueous solutions containing 20% ethanol, 200 μM of a test compound and 20 μM of solubilized Aβ40. The pH value of each sample was adjusted to 7.4 (±0.2) by addition of 0.1% aqueous sodium hydroxide. The solutions were then analyzed by electrospray ionization mass spectroscopy using a Waters ZQ 4000 mass spectrometer. Samples were introduced by direct infusion at a flow-rate of 25 μL/min within 2 hr. after sample preparation. The source temperature was kept at 70° C. and the cone voltage was 20 V for all the analysis. Data were processed using Masslynx 3.5 software.

The target in a further assay is T2, Aβ (1-40) (Homo sapiens, UniProt P05067).
T2 construct: Aβ peptide: Aβ (1-40) 95% purity (American Peptide Company, Inc, Sunnyvale, Calif. USA); purchased American Peptide Company, Inc, Sunnyvale, Calif; USA
T2 sequence (P05067 672-711 limits assumed): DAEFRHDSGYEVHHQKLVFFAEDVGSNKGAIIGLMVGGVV
In words: thioflavin T fluorescent assay (ThT assay) for fibrillogenesis. It is filed as biochemical. The conditions noted are these: Aβ (1-40) 20 μM, 5 μM Thioflavin T, pH 7.40, 37° C.; inhibition of fibrillogenesis. The source says:
Test compounds were purchased from commercial sources or synthesized and screened by thioflavin T fluorescent assay (“ThT assay”). Alternatively, one could screen test compounds by circular dichroism (“CD”), electron microscopy (“EM”), or mass spectroscopy (“MS”) assays. The MS assay gives data on the ability of compounds to bind to an amyloid protein, whereas the ThT, EM, and CD assays give data on inhibition of fibrillogenesis. The thioflavin T fluorescent assay for fibrillogenesis is based on the principle that the fluorescent dye, thioflavin T, binds specifically to fibrillar, but not to unaggregate Aβ peptide (LeVine III, H., 1993, Protein Science 2:404-410). Upon binding, thioflavin T develops a characteristic fluorescence (Naiki, H., et al., 1996, Lab. Invest. 74: 374-383) which can be easily detected. The dye is believed to interact with the stacked cross-β pleated sheets, the common structural motif of all amyloid (LeVine III, H., 1995, Amyloid: Int. J. Exp. Clin Invest. 2:1.6). Thioflavin T is widely used to assay the effect of compounds on fibrillogenesis of Aβ peptide and other amyloid proteins (Bronfman, P. C., et al., 1995, Neuroscience Lett. 218:201-203). In this assay, test compounds are incubated with a solution of Aβ (1-40) (20 μM) or IAPP (10 μM) containing 5 μM Thioflavin T, in 0.02M Tris/0.02M acetate/0.15M NaCl/0.005% azide/pH 7.40 at 37° C. in sealed 384 well microplates. Readings (ex 430 nm/em 485 nm) are taken at various time intervals with a microplate fluorescence reader. An increase in fluorescence signifies the appearance of amyloid or intermediates in the production of amyloid, as illustrated in the Figures (in general, a compound which inhibits fibrillogenesis produces lower fluorescence in the assay because the fluorescence of ThT is greater when bound to fibrils). Protocol: Aβ peptide: Aβ (1-40) 95% purity (American Peptide Company, Inc, Sunnyvale, Calif. USA) is disaggregated in trifluoroacetic acid and filtered through a […] filter, (Whatman Anotop 25 plus, 0.02 μm, Catalogue no. 6809 4102) in hexafluoroisopropanol (HFIP). Solutions of Aβ (1-40) or IAPP at 600 μm in HFIP are stored at −80° C. Assay mixture: The mixture is prepared as two solutions which are combined upon addition to the 384 well microplate (Corning Costar cat. 3705). i) Solution A consists of test compounds in 0.02M Tris/0.02M acetate/0.15M NaCl/0.01% azide at pH 7.40 or buffer alone (control), ii) Solution B consists of Aβ (1-40) 40 μM or IAPP 20 μM, Thioflavin T […] in 0.02M Tris/0.02M acetate/0.15M NaCl at pH 7.40. This solution is prepared by drying the Aβ peptide under nitrogen and then resuspending this in 0.04M Tris base with 15 minutes sonication. An equal volume of 0.04M acetic acid containing 0.3 M NaCl is added and the solution is adjusted to 7.40±0.02. A small volume of 20 mM Thioflavin T is added to the solution to give a final 5 μM concentration of Thioflavin T. iii) The microplate is loaded with 40 μL of solution A followed by 40 μL of solution B which gives a final 20 μM Aβ (1-40) or 10 μM IAPP, 5 μM Thioflavin T, and a given concentration of test compound in 0.02M Tris/0.02M acetate/0.15M NaCl/0.005% azide, pH 7.40. The plate is sealed and loaded into the microplate fluorescence reader. Fluorescence measurement data analysis: The HTS-7000 Bio Assay Reader, Perkin Elmer, is used to perform kinetic runs of about 1 day. Readings were taken at 15 minute intervals, with one minute shaking before each read. Bandpass filters used were: excitation 430 nm, emission […].

The target of assay [1] is T3, Aβ (Homo sapiens, UniProt P05067).
T3 construct: Aβ peptide: Aβ (1-40) 95% purity (American Peptide Company, Inc, Sunnyvale, Calif. USA)
T3 sequence (P05067 672-711 limits assumed): as above
Put plainly: electron microscopy (EM) assay, inhibition of fibrillogenesis. The note with it: soluble Aβ. It is filed as biochemical. The source says:
(§1) Test compounds were purchased from commercial sources or synthesized and screened by thioflavin T fluorescent assay (“ThT assay”). Alternatively, one could screen test compounds by circular dichroism (“CD”), electron microscopy (“EM”), or mass spectroscopy (“MS”) assays. The MS assay gives data on the ability of compounds to bind to an amyloid protein, whereas the ThT, EM, and CD assays give data on inhibition of fibrillogenesis.
Similarly, in the electron microscopy (“EM”) assay, each sample was sonicated for 1 min to disrupt large clumps before testing. The sample (5-μL aliquot) was placed on freshly cleaved mica and allowed to air dry. The mica was placed in a Balzers High-vacuum, Freeze-Etch Unit (model 301), shadowed with platinum (30° angle), and coated with a carbon film. The replica was removed from the mica by flotation and transferred onto a 300-mesh copper grid. Samples were examined using a Joel 2000 FX transmission electron microscope. […]

The target of assay [2] is T3, Aβ. Put plainly: circular dichroism (CD) assay, inhibition of fibrillogenesis. It is filed as biochemical. The note with it: soluble Aβ, 37° C., 190-240 nm.
Description: as §1
In the circular dichroism (“CD”) assay, samples were transferred to 0.1-cm path-length quartz cuvettes and CD scans were taken using a Jasco J-715 spectropolarimeter. Readings were taken at 37° C., between 190 and 240 nm, with a resolution of 0.1 nm and a bandwidth of 1 nm. […]
(In general: Circular dichroism is the unequal absorption of left and right circularly polarised light.)

T1 sequence (P05067 672-711 limits assumed): as above

`N=C(N)c1ccc(OCOc2ccc(C(=N)N)cc2)cc1` [Compound 9]: the “MS Assay” value on Aβ40 is reported as “+”. Further, on Aβ (1-40), the “ThT Assay” value was “+”. For the same molecule, the EM result at Aβ [1] was “−”. Besides, the CD entry on Aβ [2] was “+”.
Consider `Cl.N=C(N)c1ccccc1` [Compound 46], for which the “ThT Assay” value on Aβ (1-40) is on record as “−”. Besides, the EM result on Aβ [1] is reported as “−”. The CD entry on Aβ [2] is on record as “−”.

These data come from patent US20040147531A1, “Amidine derivatives for treating amyloidosis” (priority 2001, published 2004).
